Data: ChEMBL document CHEMBL1129595, “Potent 6-desfluoro-8-methylquinolones as new lead compounds in antibacterial chemotherapy” (J Med Chem, 1996)
pIC50: −log10 of the molar value. Converted amounts (≈) assume the structure as drawn.

Assays:
Enterobacter cloacae = test: In vitro antibacterial activity against Enterobacter cloacae OMNFI 174; type: functional
Haemophilus influenzae = test: In vitro antibacterial activity against Haemophilus influenzae; type: functional
Proteus vulgaris = test: In vitro antibacterial activity against Proteus vulgaris CNUR 6; type: functional
Staphylococcus aureus [1] = test: In vitro antibacterial activity against Staphylococcus aureus ATCC 29213; type: functional
Escherichia coli [2] = test: In vitro antibacterial activity against Escherichia coliCPX-R OBT 431; type: functional
Staphylococcus aureus [3] = test: In vitro antibacterial activity against Staphylococcus aureus CPX-R OBT 687; type: functional
Enterococcus faecalis [4] = test: In vitro antibacterial activity against Enterococcus faecalis LEP Br; type: functional
Streptococcus pyogenes = test: In vitro antibacterial activity against Streptococcus pyogenes OMNFI BI; type: functional
Escherichia coli [5] = test: In vitro antibacterial activity against Escherichia coli ATCC 25922; type: functional
Pseudomonas aeruginosa [6] = test: In vitro antibacterial activity against Pseudomonas aeruginosa OBT 307; type: functional
Staphylococcus aureus [7] = test: In vitro antibacterial activity against Staphylococcus aureus M-R POMM 6214; type: functional
Proteus mirabilis = test: In vitro antibacterial activity against Proteus mirabilis OBT 505; type: functional
Staphylococcus aureus [8] = test: In vitro antibacterial activity against Staphylococcus aureus MPR 5; type: functional
Enterococcus faecalis [9] = test: In vitro antibacterial activity against Enterococcus faecalis UCMC 39690; type: functional
Pseudomonas aeruginosa [10] = test: In vitro antibacterial activity against Pseudomonas aeruginosa […] 9027; type: functional
Streptococcus pneumoniae = test: In vitro antibacterial activity against Streptococcus pneumoniae I 0.43; type: functional
Klebsiella pneumoniae = test: In vitro antibacterial activity against Klebsiella pneumoniae ATCC 10031; type: functional
Escherichia coli [11] = test: In vitro antibacterial activity against Escherichia coli 120; type: functional
[12] = Mean MIC against gram positive; type: functional
DNA gyrase = DNA gyrase (Escherichia coli, UniProt P0AES4+P0AES6); test: Inhibitory effect against Escherichia coli Gyrase in Supercoiling assay; type: protein-complex assay
[13] = Mean MIC against gram negative; type: functional

| SMILES | MIC (Enterobacter cloacae) [µg/mL] | MIC (Haemophilus influenzae) [µg/mL] | MIC (Proteus vulgaris) [µg/mL] | MIC (Staphylococcus aureus [1]) [µg/mL] | MIC (Escherichia coli [2]) [µg/mL] | MIC (Staphylococcus aureus [3]) [µg/mL] | MIC (Enterococcus faecalis [4]) [µg/mL] | MIC (Streptococcus pyogenes) [µg/mL] | MIC (Escherichia coli [5]) [µg/mL] | MIC (Pseudomonas aeruginosa [6]) [µg/mL] | MIC (Staphylococcus aureus [7]) [µg/mL] | MIC (Proteus mirabilis) [µg/mL] | MIC (Staphylococcus aureus [8]) [µg/mL] | MIC (Enterococcus faecalis [9]) [µg/mL] | MIC (Pseudomonas aeruginosa [10]) [µg/mL] | MIC (Streptococcus pneumoniae) [µg/mL] | MIC (Klebsiella pneumoniae) [µg/mL] | MIC (Escherichia coli [11]) [µg/mL] | MIC [12] [µg/mL] | MIC [13] [µg/mL] | other results |
| --- | --- | --- | --- | --- | --- | --- | --- | --- | --- | --- | --- | --- | --- | --- | --- | --- | --- | --- | --- | --- | --- |
| Cc1c(N2CCCC(CO)C2)ccc2c(=O)c(C(=O)O)cn(C3CC3)c12 (centres undefined) | 0.5 (≈ 1.4 µM) | < 0.016 | 8 (≈ 22.4 µM) | < 0.016 | 16 (≈ 44.9 µM) | 1 (≈ 2.81 µM) | 0.5 (≈ 1.4 µM) | 0.5 (≈ 1.4 µM) | 0.125 (≈ 0.351 µM) | 16 (≈ 44.9 µM) | < 0.016 | 4 (≈ 11.2 µM) | < 0.016 | 0.25 (≈ 0.701 µM) | 4 (≈ 11.2 µM) | 0.5 (≈ 1.4 µM) | 0.06 (≈ 0.168 µM) | 0.25 (≈ 0.701 µM) | – | – | – |
| Cc1c(N2CCc3ccccc3C2)c(N)cc2c(=O)c(C(=O)O)cn(C3CC3)c12 | 0.5 (≈ 1.28 µM) | < 0.016 | 8 (≈ 20.5 µM) | < 0.016 | > 16 | 2 (≈ 5.14 µM) | 0.25 (≈ 0.642 µM) | < 0.016 | 0.125 (≈ 0.321 µM) | > 16 | < 0.016 | > 16 | < 0.016 | 0.125 (≈ 0.321 µM) | 8 (≈ 20.5 µM) | 0.25 (≈ 0.642 µM) | 0.03 (≈ 0.077 µM) | 0.125 (≈ 0.321 µM) | 0.075 (≈ 0.193 µM) | 0.998 (≈ 2.56 µM) | pIC50 (DNA gyrase): 5.03 |
| Cc1c(N2CCCCC2)c(N)cc2c(=O)c(C(=O)O)cn(C3CC3)c12 | 1 (≈ 2.93 µM) | < 0.016 | > 16 | 0.05 (≈ 0.146 µM) | > 16 | 8 (≈ 23.4 µM) | 0.5 (≈ 1.46 µM) | 0.5 (≈ 1.46 µM) | 0.125 (≈ 0.366 µM) | 16 (≈ 46.9 µM) | 0.125 (≈ 0.366 µM) | 4 (≈ 11.7 µM) | < 0.016 | 1 (≈ 2.93 µM) | 4 (≈ 11.7 µM) | 2 (≈ 5.86 µM) | < 0.016 | 0.5 (≈ 1.46 µM) | 0.376 (≈ 1.1 µM) | 1 (≈ 2.94 µM) | pIC50 (DNA gyrase): 5.03 |
| O=C(O)c1cn(C2CC2)c2cc(N3CCNCC3)c(F)cc2c1=O [CIPROFLOXACIN] | – | < 0.016 | 0.5 (≈ 1.51 µM) | 0.5 (≈ 1.51 µM) | – | > 16 | 1 (≈ 3.02 µM) | 0.5 (≈ 1.51 µM) | < 0.016 | 1 (≈ 3.02 µM) | 1 (≈ 3.02 µM) | 0.06 (≈ 0.181 µM) | 0.25 (≈ 0.754 µM) | 0.5 (≈ 1.51 µM) | 0.06 (≈ 0.181 µM) | 1 (≈ 3.02 µM) | < 0.016 | < 0.016 | 0.917 (≈ 2.77 µM) | 0.083 (≈ 0.25 µM) | – |

The next lines start with results.

| MIC (Enterobacter cloacae) [µg/mL] | MIC (Haemophilus influenzae) [µg/mL] | MIC (Proteus vulgaris) [µg/mL] | MIC (Staphylococcus aureus [1]) [µg/mL] | MIC (Escherichia coli [2]) [µg/mL] | MIC (Staphylococcus aureus [3]) [µg/mL] | MIC (Enterococcus faecalis [4]) [µg/mL] | MIC (Streptococcus pyogenes) [µg/mL] | MIC (Escherichia coli [5]) [µg/mL] | MIC (Pseudomonas aeruginosa [6]) [µg/mL] | MIC (Staphylococcus aureus [7]) [µg/mL] | MIC (Proteus mirabilis) [µg/mL] | MIC (Staphylococcus aureus [8]) [µg/mL] | MIC (Enterococcus faecalis [9]) [µg/mL] | MIC (Pseudomonas aeruginosa [10]) [µg/mL] | MIC (Streptococcus pneumoniae) [µg/mL] | MIC (Klebsiella pneumoniae) [µg/mL] | MIC (Escherichia coli [11]) [µg/mL] | MIC [12] [µg/mL] | MIC [13] [µg/mL] | SMILES | other results |
| --- | --- | --- | --- | --- | --- | --- | --- | --- | --- | --- | --- | --- | --- | --- | --- | --- | --- | --- | --- | --- | --- |
| 0.25 | 0.6 | 2 | 0.125 | 16 | 4 | 0.5 | 0.25 | 0.03 | 0.5 | 0.25 | 0.06 | 0.125 | 0.25 | 0.125 | 0.25 | 0.016 | 0.016 | – | – | CC(=O)O.Cc1c(N2CC[C@@H](N)C2)ccc2c(=O)c(C(=O)O)cn(C3CC3)c12 | – |
| 0.03 (≈ 0.0801 µM) | 0.06 (≈ 0.16 µM) | > 16 | < 0.016 | > 16 | 2 (≈ 5.34 µM) | 1 (≈ 2.67 µM) | 0.25 (≈ 0.668 µM) | 1 (≈ 2.67 µM) | > 16 | 0.25 (≈ 0.668 µM) | > 16 | 0.03 (≈ 0.0801 µM) | 0.5 (≈ 1.34 µM) | > 16 | 1 (≈ 2.67 µM) | 0.125 (≈ 0.334 µM) | 2 (≈ 5.34 µM) | 0.272 (≈ 0.726 µM) | 1.85 (≈ 4.94 µM) | Cc1c(N2CCc3ccccc3C2)ccc2c(=O)c(C(=O)O)cn(C3CC3)c12 | pIC50 (DNA gyrase): 4.68 |
| < 0.016 | < 0.016 | 0.5 (≈ 1.45 µM) | 0.125 (≈ 0.362 µM) | > 16 | 16 (≈ 46.3 µM) | 0.5 (≈ 1.45 µM) | 2 (≈ 5.79 µM) | < 0.016 | 0.25 (≈ 0.724 µM) | 1 (≈ 2.9 µM) | 0.25 (≈ 0.724 µM) | 0.125 (≈ 0.362 µM) | 0.25 (≈ 0.724 µM) | 0.5 (≈ 1.45 µM) | 0.5 (≈ 1.45 µM) | < 0.016 | < 0.016 | 0.648 (≈ 1.88 µM) | 0.11 (≈ 0.318 µM) | CN1CCN(c2cc3c(cc2F)c(=O)c(C(=O)O)cn3C2CC2)CC1 | pIC50 (DNA gyrase): 5.36 |
| 0.125 (≈ 0.348 µM) | < 0.016 | 0.5 (≈ 1.39 µM) | 0.125 (≈ 0.348 µM) | 4 (≈ 11.1 µM) | 2 (≈ 5.56 µM) | 0.25 (≈ 0.696 µM) | 0.25 (≈ 0.696 µM) | < 0.016 | 0.2 (≈ 0.556 µM) | 0.125 (≈ 0.348 µM) | 0.5 (≈ 1.39 µM) | 0.06 (≈ 0.167 µM) | 0.271 (≈ 0.754 µM) | 0.5 (≈ 1.39 µM) | 1 (≈ 2.78 µM) | < 0.016 | < 0.016 | 0.271 (≈ 0.754 µM) | 0.155 (≈ 0.431 µM) | Cc1c(N2CCN(C)CC2)c(F)cc2c(=O)c(C(=O)O)cn(C3CC3)c12 | pIC50 (DNA gyrase): 4.78 |
